Test results from patent US20230210116A1, “HONEYBEE REPELLENT” (EARTH CORPORATION, priority 2020, published 2023).

Assays:
honeybees = test: Test for Confirmation of Effect from Combined Use with Pesticide 1, 2: number of dead honeybees; type: in vivo, western honeybees; conditions: for Number of dead honeybees: of 50 honeybees; for honeybees of the tested population that had died: test zone 1
Source text: (§1) Cinnamyl alcohol was used as the active ingredient of the honeybee repellent proposed by the present invention, while dinotefuran was used as the pesticide.
(§2) As the test sample representing the pesticide alone, a 0.01% by weight per volume ethanol solution of dinotefuran was used.
(§3) (2) Preparation of Feeding Stations and Water Stations 2 cotton pads (80 mm×170 mm) were layered on a lid of KP cup (150 mm in diameter) and the cotton pads were impregnated with 40% sugar water (80 g), after which two disposable wooden chopsticks (80 mm in length) were placed as “landing areas,” for use as “test insect (honeybee, stink bug) feeding station A.”
(§4) Also, equivalents of feeding station A above, except that water (80 g) was impregnated instead of 40% sugar water (80 g), were used as “water stations.”
(§5) “Test insect (honeybee, stink bug) feeding station A,” whose cotton pads were sprayed uniformly with 5 mL (containing 0.5 mg of dinotefuran) of the 0.01% by weight per volume ethanol solution of dinotefuran, was used as “test insect (honeybee, stink bug) feeding station B.”
(§6) “Test insect (honeybee, stink bug) feeding station A,” whose cotton pads were sprayed uniformly with 5 mL (containing 5 mg of cinnamyl alcohol and 0.5 mg of dinotefuran) of the mixed ethanol solution (0.1% by weight per volume of cinnamyl alcohol, 0.01% by weight per volume of dinotefuran), was used as “test insect (honeybee, stink bug) feeding station C.”
(§7) 3 spaces (80 cm×80 cm×80 cm, 25° C.) covered with nylon gauze were designated as “untreated zone” in which a water station and feeding station A were installed, “test zone 1” in which a water station and feeding stations A, B were installed, and “test zone 2” in which a water station and feeding stations A, C were installed.
(§8) In each of these “untreated zone,” “test zone 1,” and “test zone 2,” 50 honeybees (western honeybees) and 10 stink bugs (southern green stink bugs) were released and the number of dead honeybees and that of dead stink bugs were checked at the start of testing as well as 3 hours, 18 hours, and 20 hours after the start of testing.
(§9) Carvacrol was used as the active ingredient of the honeybee repellent proposed by the present invention, while clothianidin or fipronil was used as the pesticide.
(§10) As a test sample representing a combined use of the honeybee repellent proposed by the present invention and the pesticide, a mixed ethanol solution containing carvacrol and clothianidin (0.1% by weight per volume of carvacrol and 0.01% by weight per volume of clothianidin) or mixed ethanol solution containing carvacrol and fipronil (0.1% by weight per volume of carvacrol and 0.01% by weight per volume of fipronil) was used.
As a test sample representing the pesticide alone, a 0.01% by weight per volume ethanol solution of clothianidin or 0.01% by weight per volume ethanol solution of fipronil was used.
In the same manner as in <Test for Confirmation of Effect from Combined Use with Pesticide 1> above, the number of deaths among 50 honeybees (western honeybees) and that among 10 stink bugs (southern green stink bugs) were checked in each of the “untreated zone,” “test zone 1,” and “test zone 2.” Based on the results of <Test for Confirmation of Effect from Combined Use with Pesticide 1> above, the test was terminated when the number of dead honeybees in “test zone 1” reached around one half the tested population.

stink bugs = test: Test for Confirmation of Effect from Combined Use with Pesticide 1, 2: number of dead stink bugs; type: in vivo, southern green stink bugs; conditions: of 10 stink bugs
Source text: as §1, §2, §3, §4, §5, §6, §7, §8, §9
as §10, with “used. […]” for “used.”

[1] = 0 h (start of testing), 0.01% w/v pesticide, with or without 0.1% w/v repelling component, 5 mL on feeding station
[2] = 3 hours after the start of test

Row | Structure (SMILES) | Number of dead honeybees (honeybees; [1]) | Number of dead honeybees (honeybees; 2 h) | Number of dead honeybees (honeybees; 3 h) | honeybees of the tested population that had died (honeybees; [2]) | Number of dead honeybees (honeybees; 1 h) | Number of dead honeybees (honeybees; 18 h) | Number of dead honeybees (honeybees; 20 h) | honeybees of the tested population that had died (honeybees; 20 hours after the start of testing) | Number of dead stink bugs (stink bugs; 0 h (start of testing)) | Number of dead stink bugs (stink bugs; 3 h) | Number of dead stink bugs (stink bugs; 18 h) | Number of dead stink bugs (stink bugs; 20 h)
1 | N#Cc1nn(-c2c(Cl)cc(C(F)(F)F)cc2Cl)c(N)c1[S+]([O-])C(F)(F)F (stereo not drawn) [fipronil] | 0 | 14 | 32 | approx. 60% | – | – | – | – | – | – | – | –
2 | CN/C(=N\[N+](=O)[O-])NCc1cnc(Cl)s1 [clothianidin] | 0 | 18 | 39 | approx. 60% | 11 | – | – | – | – | – | – | –
3 | CN/C(=N/CC1CCOC1)N[N+](=O)[O-] (stereo not drawn) [dinotefuran] | 0 | – | 1 | – | – | 3 | 21 | approx. 40% | 0 | 2 | 5 | 6
